Common to all, as to assay type: biochemical
The target of one test is rat cathepsin B (Rattus norvegicus, UniProt P00787). In words: In vitro assay for inhibition of cathepsin B. The settings on record: r rat cathepsin B, substrate N-CBZ-Phe-Arg-AMC, pH 5.1, 10 min incubation at room temperature. As to the method:
In Vitro Assay Procedure for Cathepsin B
The compounds of formula I were tested for inhibition of cathepsin B using the known method (A. J. Barret et al., Biochem. J. 1982, 201, 189-198). To a 170 μl of enzyme-buffer mixture (enzyme: r rat cathepsin B, diluted to give approximate 10 F units/min, buffer: 56 mM sodium acetate, 1.124 mM EDTA, 10 mM DTT, pH 5.1) a 10 μL of inhibitor (dissolved in DMSO) was added. After 10 min of incubation at room temperature, a 20 μl of 5 mM substrate (N-CBZ-Phe-Arg-AMC, dissolved in DMSO) was added to initiate reaction. Reading is followed up for 10 min at the fluoroscan reader (excitation at 380 nm emission at 460 nm).
(§1) A plot of percentage of inhibition vs inhibitor concentration is obtained, and IC50 is determined using a linear regression calculations (concentration of inhibitor which will give 50% inhibition).

Another test deals with rat cathepsin L (Rattus norvegicus, UniProt P07154). In words: In vitro assay for inhibition of cathepsin L. The note with it: r rat cathepsin L, substrate N-CBZ-Phe-Arg-AMC, pH 5.0, 10 min incubation at room temperature. As to the method:
In Vitro Assay Procedure for Cathepsin L
To a 170 μl of enzyme-buffer mixture (enzyme: r rat cathepsin L, diluted to give approximate 15 F units/min, buffer: 58.8 mM sodium citrate, 1.18 mM EDTA, 235 mM sodium chloride, 5 mM […], pH 5.0) a 10 μL of inhibitor (dissolved in DMSO) was added. After 10 min of incubation at room temperature, a 20 μl of 1 mM substrate (N-CBZ-Phe-Arg-AMC, dissolved in DMSO) was added to initiate reaction. Reading is followed up for 10 min at the fluoroscan reader (excitation at 380 nm emission at 460 nm).
as §1

In the next test the target is T1, cathepsin K (Homo sapiens, UniProt P43235).
T1 sequence (P43235 115-329): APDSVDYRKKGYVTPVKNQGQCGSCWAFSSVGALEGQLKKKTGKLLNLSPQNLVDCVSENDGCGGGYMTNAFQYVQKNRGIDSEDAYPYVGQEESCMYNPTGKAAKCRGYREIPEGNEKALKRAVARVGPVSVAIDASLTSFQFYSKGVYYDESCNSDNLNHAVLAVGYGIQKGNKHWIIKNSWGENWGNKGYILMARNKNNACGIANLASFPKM
In words: In vitro assay for inhibition of cathepsin K. The settings on record: r cathepsin K, substrate N-CBZ-Phe-Arg-AMC, pH 5.5, 10 min incubation at room temperature. As for the experimental part:
In Vitro Assay Procedure for Cathepsin K
To a 170 μl of enzyme-buffer mixture (enzyme: r cathepsin K, diluted to give approximate 30 F units/min, buffer: 100 mM sodium acetate, 5 mM EDTA, 20 mM L-cysteine, 0.01% Brij, pH 5.5) a 10 μL of inhibitor (dissolved in DMSO) was added. After 10 min of incubation at room temperature, a 20 μl of 2.7 mM substrate (N-CBZ-Phe-Arg-AMC, dissolved in DMSO) was added to initiate reaction. Reading is followed up for 10 min at the fluoroscan II plate reader (excitation at 380 nm emission at 460 nm).
as §1

The target in the next test is cathepsin S (Homo sapiens, UniProt P25774). In words: In vitro assay for inhibition of cathepsin S. The settings on record: r cathepsin S, substrate N-CBZ-Val-Val-Arg-AMC, pH 6.5, 10 min incubation at room temperature. As to the method: In Vitro Assay Procedure for Cathepsin S
cathepsin S, sequence (P25774 115-331, species assumed): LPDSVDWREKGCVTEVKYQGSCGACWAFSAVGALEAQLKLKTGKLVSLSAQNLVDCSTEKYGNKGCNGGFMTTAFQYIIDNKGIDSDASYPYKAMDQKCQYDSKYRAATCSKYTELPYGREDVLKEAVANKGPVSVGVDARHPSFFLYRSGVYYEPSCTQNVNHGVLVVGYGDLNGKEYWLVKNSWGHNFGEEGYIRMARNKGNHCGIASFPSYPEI
To a 170 μl of enzyme-buffer mixture (enzyme: r cathepsin S, diluted to give approximate 30 F units/min, buffer: 100 mM sodium phosphate, 1 mM EDTA, 5 mM DTT, 0.01% Brij, pH 6.5) a 10 μL of inhibitor (dissolved in DMSO) was added. After 10 min of incubation at room temperature, a 20 μl of 1.2 mM substrate (N-CBZ-Val-Val-Arg-AMC, dissolved in DMSO) was added to initiate reaction. Reading is followed up for 10 min at the fluoroscan II plate reader (excitation at 380 nm emission at 460 nm).
as §1

A value given as a limit tells only on which side of the number the result lay.

rat cathepsin L, sequence (P07154 114-334): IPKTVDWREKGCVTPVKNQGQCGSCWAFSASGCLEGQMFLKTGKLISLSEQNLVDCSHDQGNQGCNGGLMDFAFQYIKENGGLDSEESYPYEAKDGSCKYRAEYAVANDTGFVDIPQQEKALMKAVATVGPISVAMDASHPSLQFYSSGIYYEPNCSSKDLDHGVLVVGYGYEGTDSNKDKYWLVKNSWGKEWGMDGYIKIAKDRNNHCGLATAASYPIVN
rat cathepsin B, sequence (P00787 80-333): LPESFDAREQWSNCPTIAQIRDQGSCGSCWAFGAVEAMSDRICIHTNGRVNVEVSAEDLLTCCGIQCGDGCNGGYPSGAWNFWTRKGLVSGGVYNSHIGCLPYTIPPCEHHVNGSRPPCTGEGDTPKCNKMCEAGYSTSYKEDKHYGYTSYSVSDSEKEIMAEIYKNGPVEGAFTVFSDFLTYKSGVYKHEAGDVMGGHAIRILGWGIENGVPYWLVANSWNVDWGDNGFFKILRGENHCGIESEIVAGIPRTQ

For the molecule `CC(=O)N/C=C(\NC(=O)[C@H](CC(C)C)NC(=O)OCc1ccccc1)C(N)=O` [Example 10b, (2Z)-(2S-2-Benzyloxycarbonylamino-2-isopropylmethyl-acetamido)-3-acetamido-acrylamide], the IC50 on rat cathepsin B was 50.5 µM; at rat cathepsin L, over 64 µM; against cathepsin K it was 10.7 µM; on cathepsin S it was over 3.2 µM.
In the case of `NC(=O)C(NC(=O)[C@H](Cc1ccccc1)NC(=O)OCc1ccccc1)C(O)O` (stereo partly drawn) [Example 13, 2-(2S-2-Benzyloxycarbonylamino-2-benzyl-acetamido)-3,3-dihydroxy-propionamide], the IC50 at rat cathepsin B came out at 1.4 µM; against rat cathepsin L, 0.004 µM; against cathepsin K, 0.4 µM; at cathepsin S, 0.004 µM.
Consider `CC(C)C[C@H](NC(=O)OCc1ccccc1)C(=O)NC(=CNCc1ccccc1)C(=O)NCc1ccccc1` [Example 16, 2-(2S-2-Benzyloxycarbonylamino-2-isopropylmethyl-acetamido)-3-benzylamino-N-benzyl-acrylamide], for which the IC50 amounted to 0.15 µM on rat cathepsin B, 0.015 µM at rat cathepsin L, 0.01 µM at cathepsin K and 0.026 µM at cathepsin S.
Regarding `CC(=O)N/C=C(\NC(=O)[C@H](CC1CCCCC1)NC(=O)OCc1ccccc1)C(N)=O` [Example 19b, (2Z)-(2S-2-Benzyloxycarbonylamino-2-cyclohexylmethyl-acetamido)-3-acetamido-acrylamide], the IC50 is over 58 µM against rat cathepsin B, at least 58 µM against rat cathepsin L, over 58 µM at cathepsin K and 5.23 µM at cathepsin S.
Regarding `CC(C)C[C@H](NC(=O)OCc1ccccc1)C(=O)N/C(=C/N1CCOCC1)C(=O)OC(C)(C)C` [Example 20, tert-Butyl-2-[2S-(benzyloxycarbonylamino)-2-isopropylmethyl-acetamido]-2-(morpholino-1-methylenyl)-acetate], the IC50 stood at 0.42 µM at rat cathepsin B, 0.08 µM against rat cathepsin L, 0.004 µM at cathepsin K and 0.38 µM against cathepsin S.
On the same counts, the results for `CCOC(=O)/C(=C\N1CCN(C)CC1)NC(=O)[C@H](CC(C)C)NC(=O)OCc1ccccc1` [Example 21, Ethyl-2-[2S-(benzyloxycarbonylamino)-2-isopropylmethyl-acetamido]-2-(4-methylpiperazino-1-methylenyl)-acetate] are 8.21 µM, 0.21 µM, 0.087 µM and 0.3 µM.
For the molecule `CCOC(=O)/C(=C\N1CCOCC1)NC(=O)[C@H](Cc1ccccc1)NC(=O)OCc1ccccc1` [Example 22, Ethyl-2-[2S-(benzyloxycarbonylamino)-2-phenylmethyl-acetamido]-2-(morpholino-1-methylenyl)-acetate], the IC50 is 0.08 µM on rat cathepsin B, 0.04 µM on rat cathepsin L, 0.04 µM on cathepsin K and 0.42 µM against cathepsin S.
Regarding `CCOC(=O)/C(=C\N1CCOCC1)NC(=O)[C@H](CC(C)C)NC(=O)OCc1ccccc1` [Example 23, Ethyl-2-[2S-(benzyloxycarbonylamino)-2-isopropylmethyl-acetamido]-2-(morpholino-1-methylenyl)-acetate], the IC50 on rat cathepsin B amounted to 0.45 µM; against rat cathepsin L, 0.089 µM; against cathepsin K, 0.011 µM; against cathepsin S, 0.038 µM.
On the same counts, the results for `CCOC(=O)/C(=C\N1CCOCC1)NC(=O)[C@H](CC1CCCCC1)NC(=O)OCc1ccccc1` [Example 24, Ethyl-2-[2S-(benzyloxycarbonylamino)-2-cyclohexylmethyl-acetamido]-2-(morpholino-1-methylenyl)-acetate] are 0.082 µM, 0.082 µM, 0.37 µM and 0.0033 µM.
With `O=C(CCc1ccccc1)N[C@@H](Cc1ccccc1)C(=O)N/C(=C/N1CCOCC1)C(=O)OC(c1ccccc1)c1ccccc1` [Example 25, Diphenylmethyl-2-[2S-(3-phenylpropionylamino)-2-phenylmethyl-acetamido]-2-(morpholino-1-methylenyl)-acetate], the IC50 at rat cathepsin B is 0.06 µM; against rat cathepsin L, 0.18 µM; on cathepsin K, 0.065 µM; against cathepsin S, 0.18 µM.
With `COc1ccc(C(=O)/C(=C\N2CCOCC2)NC(=O)[C@H](CC(C)C)NC(=O)c2cc3ccccc3s2)cc1` [Example 26, 2-[2S-(Benzothiophen-2-carbonylamino)-2-isopropylmethyl-acetamido]-2-(morpholino-1-methylenyl)-4′-methoxyacetophenone], the concentration for half-maximal inhibition (IC50) at rat cathepsin B was found to be 1.47 µM; against rat cathepsin L, 0.075 µM; against cathepsin K it was 0.015 µM; at cathepsin S, 0.99 µM.
Take `CC(C)C[C@H](NC(=O)OCc1ccccc1)C(=O)N/C(=C/N1CCOCC1)C(=O)c1ccccc1` [Example 27, 2-[2S-(Benzyloxycarbonylamino)-2-isopropylmethyl-acetamido]-2-(morpholino-1-methylenyl)-acetophenone]: the IC50 against rat cathepsin B came out at 32.3 µM; at rat cathepsin L, 4.24 µM; against cathepsin K it was 0.14 µM; against cathepsin S, 52.2 µM.
With `COc1ccc(C(=O)/C(=C\N2CCOCC2)NC(=O)[C@H](CC(C)C)NC(=O)OCc2ccccc2)cc1` [Example 28, 2-[2S-(Benzyloxycarbonylamino)-2-isopropylmethyl-acetamido]-2-(morpholino-1-methylenyl)-4′-methoxyacetophenone], the IC50 against rat cathepsin B is 1.96 µM; at rat cathepsin L, 0.27 µM; on cathepsin K it was 0.016 µM; at cathepsin S, 1.3 µM.
In the case of `CC(C)C[C@H](NC(=O)OCc1ccccc1)C(=O)N/C(=C/N1CCOCC1)C(=O)c1ccc(F)cc1` [Example 29, 2-[2S-(Benzyloxycarbonylamino)-2-isopropylmethyl-acetamido]-2-(morpholino-1-methylenyl)-4′-fluoroacetophenone], the IC50 at rat cathepsin B was determined as 50.3 µM; against rat cathepsin L, 2.01 µM; on cathepsin K, 0.34 µM; against cathepsin S it was 50.3 µM.
As for `COC(=O)[C@H](Cc1ccccc1)N/C=C(/NC(=O)[C@H](Cc1ccccc1)NC(=O)OCc1ccccc1)C(N)=O` [Example 30a, (2E)-(2S-2-Benzyloxycarbonylamino-2-phenylmethyl-acetamido)-3-(1-carbomethoxy-2-phenethylamino)-acrylamide], the IC50 was determined as 1.83 µM against rat cathepsin B, 0.048 µM against rat cathepsin L, 0.28 µM on cathepsin K and 0.57 µM against cathepsin S.
The matching figures for `COC(=O)[C@H](Cc1ccccc1)N/C=C(\NC(=O)[C@H](Cc1ccccc1)NC(=O)OCc1ccccc1)C(N)=O` [Example 30b, (2Z)-(2S-2-Benzyloxycarbonylamino-2-phenylmethyl-acetamido)-3-(1-carbomethoxy-2-phenethylamino)-acrylamide]: 1.83 µM, 0.035 µM, 0.28 µM and 1.21 µM.
Turning to `COC(=O)CN/C=C(/NC(=O)[C@H](Cc1ccccc1)NC(=O)OCc1ccccc1)C(N)=O` [Example 31a, (2E)-(2S-2-Benzyloxycarbonylamino-2-phenylmethyl-acetamido)-3-(1-carbomethoxy-methylamino)-acrylamide], the IC50 at rat cathepsin B amounted to 0.66 µM; against rat cathepsin L, 0.017 µM; against cathepsin K it was 0.13 µM; at cathepsin S it was 0.7 µM.

In general, IC50 refers to the concentration that gives 50% inhibition. Lower therefore signals inhibition by little substance.

The values above are taken from US6635621B1, “Cysteine protease inhibitors” (Naeja Pharmaceutical Inc., priority 1999, dated 2003).
